According to patent US20240423980A1, “METHODS OF PREVENTING A VENOUS THROMBOEMBOLIC EVENT” (Board of Supervisors of Louisiana State University and …, priority 2023, published 2024):
One block for each molecule: values may come before it.

Key:
[1] = system: patients with mild-to-moderate COPD; settings: cited from earlier work
ITGA9-VCAM1 binding = molecular target: T1, ITGA9-VCAM1 binding (Homo sapiens, UniProt Q13797); assay: ITGA9 binding assay (ITGA9-VCAM1 binding, cell-free)
T1 construct: purchased R&D Systems
T1 sequence (Q13797 30-981 limits assumed): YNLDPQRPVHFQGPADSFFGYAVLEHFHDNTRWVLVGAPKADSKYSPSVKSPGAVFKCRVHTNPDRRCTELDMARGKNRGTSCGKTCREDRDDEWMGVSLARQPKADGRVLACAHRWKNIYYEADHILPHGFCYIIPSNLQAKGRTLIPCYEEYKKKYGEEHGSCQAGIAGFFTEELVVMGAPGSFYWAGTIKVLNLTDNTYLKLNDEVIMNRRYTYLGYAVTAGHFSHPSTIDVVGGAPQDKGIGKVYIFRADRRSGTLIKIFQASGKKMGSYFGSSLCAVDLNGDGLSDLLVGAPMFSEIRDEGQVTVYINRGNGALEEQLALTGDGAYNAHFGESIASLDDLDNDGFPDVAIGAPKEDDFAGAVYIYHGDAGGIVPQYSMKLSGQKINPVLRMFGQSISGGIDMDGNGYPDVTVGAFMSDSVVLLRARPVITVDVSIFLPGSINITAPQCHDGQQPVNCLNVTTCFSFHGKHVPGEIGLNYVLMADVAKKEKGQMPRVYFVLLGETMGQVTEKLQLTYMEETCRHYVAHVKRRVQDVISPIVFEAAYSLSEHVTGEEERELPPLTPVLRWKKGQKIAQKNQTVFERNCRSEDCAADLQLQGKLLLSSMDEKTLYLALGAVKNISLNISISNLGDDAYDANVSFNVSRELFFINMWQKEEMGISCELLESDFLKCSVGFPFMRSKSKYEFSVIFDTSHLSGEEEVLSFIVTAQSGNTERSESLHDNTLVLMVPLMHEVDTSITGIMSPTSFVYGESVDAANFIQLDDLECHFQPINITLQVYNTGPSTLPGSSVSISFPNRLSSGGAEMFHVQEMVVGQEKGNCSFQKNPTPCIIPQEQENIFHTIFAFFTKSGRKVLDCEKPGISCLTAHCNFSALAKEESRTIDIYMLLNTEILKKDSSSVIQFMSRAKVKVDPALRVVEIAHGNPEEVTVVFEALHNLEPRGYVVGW
T1 sequence (P05556 21-728 partner limits assumed): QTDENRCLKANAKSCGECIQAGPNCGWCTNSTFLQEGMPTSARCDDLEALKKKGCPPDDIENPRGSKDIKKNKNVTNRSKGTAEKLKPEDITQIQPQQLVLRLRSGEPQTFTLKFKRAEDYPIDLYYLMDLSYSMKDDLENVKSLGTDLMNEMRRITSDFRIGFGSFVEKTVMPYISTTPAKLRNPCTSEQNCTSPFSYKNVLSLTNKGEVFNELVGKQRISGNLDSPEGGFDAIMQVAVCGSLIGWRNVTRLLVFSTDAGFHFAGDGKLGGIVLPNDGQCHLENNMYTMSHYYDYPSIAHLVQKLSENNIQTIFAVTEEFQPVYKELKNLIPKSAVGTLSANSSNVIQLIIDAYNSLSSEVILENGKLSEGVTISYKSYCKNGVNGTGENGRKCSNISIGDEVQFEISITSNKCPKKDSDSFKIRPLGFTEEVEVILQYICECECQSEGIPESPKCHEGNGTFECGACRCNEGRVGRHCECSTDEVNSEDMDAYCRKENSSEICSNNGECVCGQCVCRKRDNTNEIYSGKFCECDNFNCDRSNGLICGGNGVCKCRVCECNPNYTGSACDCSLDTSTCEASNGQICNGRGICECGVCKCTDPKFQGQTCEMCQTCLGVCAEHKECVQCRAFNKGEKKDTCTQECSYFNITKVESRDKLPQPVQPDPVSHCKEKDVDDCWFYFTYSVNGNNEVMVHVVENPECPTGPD
Method: Turning next to FIG. 2, another aspect of the invention is shown as a ITGA9 binding assay. Briefly, purified human VCAM1 (R&D Systems) diluted to 5 μg/ml in TBS+ buffer (25 mM Tris pH 7.4, 137 mM NaCl, 2.7 mM KCl, 1 mM CaCl2, 1 Mm MgCl2, 1 mM MnC12) was added to wells of a 96-well transparent microtiter plate and incubated overnight at 4° C. Wells were washed 3 times with buffer and blocking buffer (TBS+ with 1% bovine serum albumin) was added followed by incubation for 1 hour at 37° C., and then washing. Recombinant human integrin ITGA9 (R&D Systems) was diluted to 1 μg/ml in TBS+/0.1% bovine serum albumin. Macitentan was diluted into the integrin solution and added to the washed ligand-coated plate according to a standard template with each sample repeated in triplicate. After incubation for 2 hours at room temperature, the plate was washed 3 times with 150 μl TBS+ buffer. To each well, biotinylated anti-β1 (catalog BAF1778, R&D Systems) at 1 μg/ml in TBS+/0.1% BSA was added, and the plate covered and incubated for 1 hour at RT. After washing the plate 3 times with TBS+ buffer, streptavidin conjugated horseradish peroxidase (R&D Systems) diluted in TBS+ blocking buffer was added to the wells and the plate incubated for 20 minutes at room temperature. […] After incubation for 20 minutes at RT, plates were read by colorimetric detection at 450 nm wavelength. […]

wild-type mice = assay: In vivo venous thrombosis using IVC stenosis (DVT surgery); set-up: species or system mouse; settings: 10 mg/kg; measured at 24-hr; vs vehicle; FIG. 3
Method: Next, we performed in vivo venous thrombosis using IVC stenosis (DVT surgery) in 30 wild-type mice and randomized them into control (vehicle, n=15) and treatment (Macitentan, 10 mg/kg, n=15) groups. The thrombus weight and incidence were measured at 24-hr.

mice with lung cancer = assay: IVC stenosis DVT in mice with lung cancer (LLC1 cells); type: in vivo, mouse; settings: thrombus harvested 48-hour post-stenosis, FIG. 23
Method: Lewis lung carcinoma (LLC1) cell line will be obtained from American Type Culture Collection (ATCC). The cell line was originally derived from a Lewis lung carcinoma of a C57BL mouse strain. The cells will be grown in Dulbecco's Modified Eagle Medium (DMEM) supplemented with 10% FCS, 2 mM L-glutamine, 100 U/ml penicillin, 100 μg/ml streptomycin, and 0.1% fungizone. The cells will be maintained at 37° C. in a humidified atmosphere with 5% CO2. The LLC1 cells (100 μL) will be injected once intravenously.
Macitentan at the dose of 2, 5 and 10 mg/kg will be administered orally once a day from the day of cancer induction until the end of the study.
Deep vein thrombosis (DVT) will be induced in mice after 14 days of tumor induction. Briefly, anesthetized mice will undergo laparotomy, the intestine will be exteriorized, and the intra renal IVC will be exposed. The IVC will then be dissected away from the aorta. For stenosis, IVC will be exposed, a space holder (30-gauge, 3-mm long needle) will be positioned on the outside of the vessel, and a permanent narrowing ligature will be placed exactly below the left renal vein. Subsequently, the needle will be removed to restrict blood flow to 80-90%. […]
Thrombus size and thrombosis incidence on day 1 and day 2 following DVT surgery will be evaluated by ultrasonography. […]

[2] = system: Src family of protein tyrosine kinases; settings: cited from earlier work
Src = Src (Mus musculus, UniProt P05480); settings: in vivo dose of 1.5 mg/kg; cited from earlier work
Chain of Src (P05480 whole entry): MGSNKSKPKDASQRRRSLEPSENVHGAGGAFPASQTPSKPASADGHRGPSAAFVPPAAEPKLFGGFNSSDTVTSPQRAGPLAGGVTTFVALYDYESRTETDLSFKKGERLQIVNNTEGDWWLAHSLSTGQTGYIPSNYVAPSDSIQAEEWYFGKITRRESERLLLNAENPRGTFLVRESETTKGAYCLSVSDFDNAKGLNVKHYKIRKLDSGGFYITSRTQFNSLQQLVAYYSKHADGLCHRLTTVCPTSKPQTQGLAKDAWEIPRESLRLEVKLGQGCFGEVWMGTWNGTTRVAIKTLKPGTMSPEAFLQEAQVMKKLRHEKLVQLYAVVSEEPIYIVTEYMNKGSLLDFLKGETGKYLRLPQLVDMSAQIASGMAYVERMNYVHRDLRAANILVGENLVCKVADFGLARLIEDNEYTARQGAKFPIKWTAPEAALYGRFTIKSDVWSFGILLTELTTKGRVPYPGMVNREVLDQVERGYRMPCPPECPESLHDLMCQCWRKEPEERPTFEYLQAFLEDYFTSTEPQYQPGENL

Compound: Cc1c(F)cccc1NC(=O)Nc1ccc(Cl)c(S(=O)(=O)[C@H]2CCCNC2)c1O [Danirixin]
- number of pneumonias ([1]; danirixin 50 mg): increased number of pneumonias
- incidence of exacerbation ([1]; danirixin-treated groups, COPD patients): increased incidence of exacerbation

- binds to integrin α9 and inhibits its interactions with VCAM-1 (ITGA9-VCAM1 binding): inhibits its interactions with VCAM-1
- inhibition of ITGA9-VCAM1 binding (ITGA9-VCAM1 binding; Macitentan at 1 μM, FIG. 2): significantly inhibited
Compound: CCCNS(=O)(=O)Nc1ncnc(OCCOc2ncc(Br)cn2)c1-c1ccc(Br)cc1 [Macitentan]
- thrombosis incidence (wild-type mice): significantly reduced
- thrombus weight (wild-type mice): significantly reduced
- DVT severity (IVC thrombus weight) (mice with lung cancer): significantly reduced

Compound: Cc1ccc(-c2nn(C(C)(C)C)c3ncnc(N)c23)cc1 [PP1]
- IC50 [2]: 170 nM
- inhibition of Src in vivo (Src): significant inhibition
